Test results as given in patent publication US20250282820A1, “PEPTIDE COMPLEX HAVING TRKB BINDING ACTIVITY” (PEPTIDREAM INC, priority 2022, published 2025).
*1 amine or outer side, *2 acyl side, *3 side chain or, on linkers, in order; H or OH if unused. Where a SMILES comes first, the peptide text is derived from it. Bridges are numbered along the chain shown (N, C = ends). Roman numbers before positions name the chains, in order. [ ]: non-standard residue; d: D form. CO(CH2CH2O)13CH2CH2CO = O=C(CCOCCOCCOCCOCCOCCOCCOCCOCCOCCOCCOCCOCCOCCC(=O)[*:2])[*:1]; 3Pal = N[C@@H](Cc1cccnc1)C(=O)O

Legend:
[1] = biological target: T1, TrkB (CellSensor TrkB-NFAT-bla CHO-K1 Cell) (Homo sapiens, UniProt Q16620); assay: NFAT transcriptional reporter assay for TrkB agonist activity; assay type: cell-based; conditions: class = peptide concentration giving 50% or more activity; BDNF maximum signal = 100%, no stimulation = 0%; 5 hours culture
T1 construct: host or cells: CHO-K1 (CellSensor TrkB-NFAT-bla CHO-K1)
Outline: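 CHO-K1 TrkB-NFAT-bla cells, 12,500 per well, treated overnight-seeded with peptide or BDNF for 5 h, then CCF4-AM substrate 2 h in the dark; 460/535 nm emission ratio. Activity scaled to maximal BDNF signal (100%) and unstimulated (0%); grades A/B/C mean ≥50% activity at 1, 10 or 100 nM.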

[2] = biological target: T2, Recombinant Human TrkA Fc Chimera Protein (Homo sapiens, UniProt P04629); assay: Surface plasmon resonance (SPR), Biacore T200, single cycle kinetics; assay type: binding; conditions: FIG. 4
T2 construct: purchased R&D Systems
Method: (§1) A CM3 sensor chip (Cytiva) was inserted into a Biacore T200 (Cytiva). Three priming runs were performed using running buffer: HBS-EP+ (Cytiva). The system was then equilibrated at a flow rate of 30 μL/min. After mixing in 50 μL each of a 60 mM EDC solution (Cytiva) and 650 mM NHS solution (Cytiva), the reaction was performed at a flow rate of 10 μL/min for 420 seconds. Then, 135 μL of a 30 ng/μL anti-human IgG (Fc) antibody (Cytiva) solution was prepared by dilution with a 10 mM acetic acid solution (pH 5.0), and the anti-human IgG (Fc) antibody was immobilized on the CM3 sensor chip by reacting it at a flow rate of 10 μL/min for 360 seconds. After immobilization, capping was performed by reacting it with a 1.0M ethanolamine solution (Cytiva) at a flow rate of 10 μL/min for 420 seconds. Each 200 nM Recombinant Human TrkA Fc Chimera Protein, Recombinant Human TrkB Fc Chimera Protein, Recombinant Human TrkC Fc Chimera Protein (R&D Systems) solution was reacted with the immobilized antibody at a flow rate of 10 μL/min for 60 seconds. A liquid prepared by dissolving each peptide at 10 mM in DMSO solution was diluted with running buffer to prepare a peptide-dissolved solution at a final concentration of 10 μM. Subsequently, 50 nM, 25 nM, 12.5 nM, 5 nM, and 2.5 nM peptide solutions were prepared. Using the samples described above, the kinetics of peptide against TrkA, TrkB, and TrkC were obtained by SPR measurements. After reacting a peptide with TrkA, TrkB, and TrkC, regeneration was performed using a reaction with a 3M MgCl solution at 10 μL/min for 180 seconds.
(§2) The kinetic evaluation model was Single Cycle Kinetics, and curve fitting was performed using Biacore T200 Evaluation Software Version 3.0 (Cytiva). The binding of peptides to TrkA, TrkB, and TrkC was evaluated by performing least-squares curve fitting on the obtained sensorgrams and calculating their Kd values (dissociation constants).

[3] = biological target: T3, Recombinant Human TrkB Fc Chimera Protein (Homo sapiens, UniProt Q16620); assay: as above; assay type: binding; conditions: for Kd: calculated by employing the lower theoretical limit of 0.00001 (1/s) for koff, read-out: Kd (dissociation constant) of binding to TrkB
T3 construct: purchased R&D Systems
Method: as §1, §2

[4] = biological target: T4, Recombinant Human TrkC Fc Chimera Protein (Homo sapiens, UniProt Q16288); assay: as above; assay type: binding; conditions: FIG. 4
T4 construct: purchased R&D Systems
Method: as §1, §2

T1 sequence (Q16620 32-822): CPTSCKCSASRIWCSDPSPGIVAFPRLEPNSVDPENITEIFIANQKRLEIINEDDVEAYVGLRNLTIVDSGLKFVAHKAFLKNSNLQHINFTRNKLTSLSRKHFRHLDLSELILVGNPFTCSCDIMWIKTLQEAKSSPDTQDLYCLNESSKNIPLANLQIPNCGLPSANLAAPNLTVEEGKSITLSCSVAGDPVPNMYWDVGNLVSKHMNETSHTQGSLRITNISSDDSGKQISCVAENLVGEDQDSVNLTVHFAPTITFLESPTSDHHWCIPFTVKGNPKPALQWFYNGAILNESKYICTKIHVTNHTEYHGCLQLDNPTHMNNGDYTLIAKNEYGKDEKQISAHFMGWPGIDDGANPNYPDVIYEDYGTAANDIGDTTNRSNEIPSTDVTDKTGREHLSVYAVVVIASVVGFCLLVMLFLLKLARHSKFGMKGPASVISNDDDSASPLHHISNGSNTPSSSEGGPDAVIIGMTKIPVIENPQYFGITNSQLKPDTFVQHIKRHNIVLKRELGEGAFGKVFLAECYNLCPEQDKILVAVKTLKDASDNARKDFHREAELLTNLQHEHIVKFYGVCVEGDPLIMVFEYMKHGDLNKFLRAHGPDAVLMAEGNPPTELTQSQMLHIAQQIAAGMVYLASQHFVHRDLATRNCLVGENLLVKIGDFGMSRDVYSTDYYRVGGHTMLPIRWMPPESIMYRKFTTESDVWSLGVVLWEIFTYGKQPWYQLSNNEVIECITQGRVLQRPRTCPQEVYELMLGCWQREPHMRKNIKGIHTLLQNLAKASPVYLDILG
T2 sequence (P04629 with tags, fused parts or gaps limits assumed): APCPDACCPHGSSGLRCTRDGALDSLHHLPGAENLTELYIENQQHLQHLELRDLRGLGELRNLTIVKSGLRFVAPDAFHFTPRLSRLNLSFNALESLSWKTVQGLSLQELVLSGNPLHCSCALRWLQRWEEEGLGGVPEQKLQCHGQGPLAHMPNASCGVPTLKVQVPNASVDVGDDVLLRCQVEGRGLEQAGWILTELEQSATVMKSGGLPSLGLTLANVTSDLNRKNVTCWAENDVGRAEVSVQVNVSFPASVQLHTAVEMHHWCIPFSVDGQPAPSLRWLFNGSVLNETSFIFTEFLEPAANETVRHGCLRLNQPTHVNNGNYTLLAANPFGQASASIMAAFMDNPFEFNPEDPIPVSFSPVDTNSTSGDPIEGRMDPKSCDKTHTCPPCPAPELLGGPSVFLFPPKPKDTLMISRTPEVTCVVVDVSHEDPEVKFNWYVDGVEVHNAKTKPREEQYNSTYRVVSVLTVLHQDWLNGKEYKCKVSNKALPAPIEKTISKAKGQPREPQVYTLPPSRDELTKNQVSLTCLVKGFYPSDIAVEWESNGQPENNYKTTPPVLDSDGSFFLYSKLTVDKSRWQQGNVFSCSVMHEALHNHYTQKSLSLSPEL
T4 sequence (Q16288 with tags, fused parts or gaps limits assumed): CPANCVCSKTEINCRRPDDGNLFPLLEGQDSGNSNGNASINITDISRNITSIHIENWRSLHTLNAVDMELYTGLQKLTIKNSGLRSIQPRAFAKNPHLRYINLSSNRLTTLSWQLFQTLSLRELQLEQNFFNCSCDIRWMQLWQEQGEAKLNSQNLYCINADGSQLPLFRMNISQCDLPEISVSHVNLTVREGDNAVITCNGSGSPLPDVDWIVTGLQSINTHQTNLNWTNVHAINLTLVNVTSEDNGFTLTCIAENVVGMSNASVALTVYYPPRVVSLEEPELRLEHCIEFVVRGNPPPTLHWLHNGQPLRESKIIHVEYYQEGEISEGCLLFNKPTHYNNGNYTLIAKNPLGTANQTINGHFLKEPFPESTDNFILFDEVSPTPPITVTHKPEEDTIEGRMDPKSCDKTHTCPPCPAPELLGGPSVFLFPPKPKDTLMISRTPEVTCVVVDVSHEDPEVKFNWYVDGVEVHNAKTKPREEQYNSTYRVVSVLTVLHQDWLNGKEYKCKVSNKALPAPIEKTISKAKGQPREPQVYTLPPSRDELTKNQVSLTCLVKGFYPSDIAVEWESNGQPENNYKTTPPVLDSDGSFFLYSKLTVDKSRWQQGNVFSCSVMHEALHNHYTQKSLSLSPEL

Row | Compound | NFAT Assay Results [1] | binding to TrkA [2] | koff (dissociation rate constant) of binding to TrkB [3] | Kd [3] [nM] | binding to TrkC [4]
1 | CC(C)[C@@H]1NC(=O)[C@H](Cc2cccnc2)NC(=O)[C@H](CCC(=O)O)NC(=O)[C@H](CO)NC(=O)[C@H](Cc2ccc(O)cc2)NC(=O)[C@H]([C@@H](C)O)NC(=O)[C@@H]2CCCN2C(=O)[C@H](Cc2c[nH]c3ccccc23)NC(=O)[C@H](Cc2cccnc2)NC(=O)[C@H](Cc2ccc(O)cc2)NC(=O)[C@@H]2CCCN2C(=O)[C@H](CCC(=O)O)NC(=O)[C@H](Cc2ccccc2)NC(=O)CSC[C@@H](C(=O)NCC(=O)N[C@@H](CCCCNC(=O)CCOCCOCCOCCOCCOCCOCCOCCOCCOCCOCCOCCOCCOCCC(=O)NCCCC[C@H](NC(=O)CNC(=O)[C@@H]2CSCC(=O)N[C@@H](Cc3ccccc3)C(=O)N[C@@H](CCC(=O)O)C(=O)N3CCC[C@H]3C(=O)N[C@@H](Cc3ccc(O)cc3)C(=O)N[C@@H](Cc3cccnc3)C(=O)N[C@@H](Cc3c[nH]c4ccccc34)C(=O)N3CCC[C@H]3C(=O)N[C@@H]([C@@H](C)O)C(=O)N[C@@H](Cc3ccc(O)cc3)C(=O)N[C@@H](CO)C(=O)N[C@@H](CCC(=O)O)C(=O)N[C@@H](Cc3cccnc3)C(=O)N[C@@H](C(C)C)C(=O)N[C@@H](CCC(=O)O)C(=O)N2)C(N)=O)C(N)=O)NC(=O)[C@H](CCC(=O)O)NC1=O [compound 56] (I: {CH2CO}-FEPY[3Pal]WPTYSE[3Pal]VECGK-NH2 / II: {CH2CO}-FEPY[3Pal]WPTYSE[3Pal]VECGK-NH2; linker I:17-II:17 via CO(CH2CH2O)13CH2CH2CO; thioether I:N-I:15, II:N-II:15) | A (The peptide with 50% or more activity when 1 nM of the peptide was added was evaluated as A) | no binding | exceeded the measurement limit | ≤ 0.1 | no binding
2 | CC(C)[C@@H]1NC(=O)[C@H](Cc2cccnc2)NC(=O)[C@H](CCC(=O)O)NC(=O)[C@H](CO)NC(=O)[C@H](Cc2ccc(O)cc2)NC(=O)[C@H]([C@@H](C)O)NC(=O)[C@@H]2CCCN2C(=O)[C@H](Cc2c[nH]c3ccccc23)NC(=O)[C@H](Cc2cccnc2)NC(=O)[C@H](Cc2ccc(O)cc2)NC(=O)[C@@H]2CCCN2C(=O)[C@H](CO)NC(=O)[C@H](Cc2ccccc2)NC(=O)CSC[C@@H](C(=O)NCC(=O)N[C@@H](CCCCNC(=O)CCOCCOCCOCCOCCOCCOCCOCCOCCOCCOCCOCCOCCOCCC(=O)NCCCC[C@H](NC(=O)CNC(=O)[C@@H]2CSCC(=O)N[C@@H](Cc3ccccc3)C(=O)N[C@@H](CO)C(=O)N3CCC[C@H]3C(=O)N[C@@H](Cc3ccc(O)cc3)C(=O)N[C@@H](Cc3cccnc3)C(=O)N[C@@H](Cc3c[nH]c4ccccc34)C(=O)N3CCC[C@H]3C(=O)N[C@@H]([C@@H](C)O)C(=O)N[C@@H](Cc3ccc(O)cc3)C(=O)N[C@@H](CO)C(=O)N[C@@H](CCC(=O)O)C(=O)N[C@@H](Cc3cccnc3)C(=O)N[C@@H](C(C)C)C(=O)N[C@@H](CCC(=O)O)C(=O)N2)C(N)=O)C(N)=O)NC(=O)[C@H](CCC(=O)O)NC1=O [compound 48] (I: {CH2CO}-FSPY[3Pal]WPTYSE[3Pal]VECGK-NH2 / II: {CH2CO}-FSPY[3Pal]WPTYSE[3Pal]VECGK-NH2; linker I:17-II:17 via CO(CH2CH2O)13CH2CH2CO; thioether I:N-I:15, II:N-II:15) | A (The peptide with 50% or more activity when 1 nM of the peptide was added was evaluated as A) | no binding | exceeded the measurement limit | ≤ 0.1 | no binding
